Data reported in US20090226494A1, “PATHOGEN - CONTROLLING PRODUCTS” (priority 2005, published 2009).

Key:
HT-29 cells = assay: Sulforhodamine (SRB) cytotoxicity assay and microscopy; assay type: cell-based, human; conditions: 24 and 48 hours
Source text: (§1) The three copper-containing antimicrobial solutions—CuPC33, CuAL42 and CuWB50—were provided and each contained 30.43 g/L of copper ion. […] Two human cell lines were used for this example: HT-29, an intestinal epithelial cell line, and U937, a monocytic lymphoma. […] After examination by microscopy the cells were then fixed and stained to quantitatively determine cytotoxicity using a sulforhodamine (SRB) cytotoxicity assay, developed and validated at the National Cancer Institute. […] All test cultures were in triplicate.

U937 cells = assay: as above; assay type: cell-based, human; conditions: 24 and 48 hours
Source text: as §1

ACCB = conditions: 40 and 150 ppm
MRSA = assay: Time kill curves in RPMI-1460 medium; assay type: cell-based, Staphylococcus aureus; conditions: 20 and 150 ppm
[1] = tested on: A431 human skin cell line; assay: Hand gel cytotoxicity, SRB assay; assay type: cell-based; conditions: 10% concentration (highest), 24 hours
Method: Methods: The human squamous epithelial cell line A431 was cultured in RPMI 1640 medium supplemented with 10% FCS, 2 g/L sodium bicarbonate and 2 mM L-glutamine (complete medium), in 75 cm^2 tissue culture flasks in a humidified incubator at 37° C. with a 5% CO2 in air atmosphere. For the cytotoxicity experiments, A431 cells were plated into the wells of flat-bottom 96 well plates at 5×10^4 cells per well in 200 μl of complete medium and allowed to grow to confluence. On the day of the experiment the depleted culture medium was aspirated and replaced with 100 μl of fresh complete medium. Samples of the hand gels were diluted in complete medium to double the concentrations shown in the Figure and 100 μl of each samples was added to the cells which were then cultured for a further 24 hours. After microscopic examination, the cells were fixed and stained to quantitatively determine cytotoxicity as described below. The sulforhodamine B (SRB) cytotoxicity assay was developed and validated at the National Cancer Institute. […] After washing twice with tap water the remaining stain was dissolved in 10 mM Tris base and the optical density (O.D.) of the wells was measured on a Dynatech Multiplate ELISA reader at 540 nm. The percent cell survival was calculated by dividing the test O.D. by control O.D. and multiplying by 100.

O=S(=O)([O-])[O-].[Cu+2] [copper sulphate]
cytotoxicity (HT-29 cells; 1-100 ppm, 5% or 25% FCS): not significantly cytotoxic
cytotoxicity (HT-29 cells; 1000 ppm): very toxic
cytotoxicity (U937 cells; 1-100 ppm, 5% or 25% FCS): not significantly cytotoxic
cytotoxicity (U937 cells; 1000 ppm): very toxic
activity in time kill curves (ACCB): little initial activity but the bacteria recovered
activity in time kill curves (MRSA): some activity but the bacteria recovered

CCO [ethanol]
reduction of cell survival / cells killed [1]: around 50%
